Reference: patent US20060110803A1 (Crucell Holland B.V., priority 2003, published 2006)

tested on: antibodies in control sera (pooled serum of 10 healthy LUMC hospital workers; commercial negative donor pooled serum); assay type: binding, human

Sequence	recognition by control sera (domains homologous with OC43 spike)
GYHLMSFPQAAPHGVVFLHVTYVPSQERNFTTAPAICHEGKAYFPREG [SEQ ID NO:1247]	recognition by control sera derived from individuals which have not been infected by SARS-CoV

tested on: antibodies in sera of individuals which have been and/or are infected by SARS-CoV (SARS-green, SARS-yellow, 1a, 1b, 2, 6, 37, 62, London); assay type: binding, human

Sequence	recognition by sera of SARS-CoV infected individuals, looped/cyclic form	recognition by sera of SARS-CoV infected individuals (domains homologous with OC43 spike)	recognition by sera of SARS-CoV infected individuals, linear form
ALGKLQDVVNQNAQA [SEQ ID NO:954]	recognized in looped/cyclic form	–	–
GKLQDVVNQNAQALN [SEQ ID NO:956]	recognized in looped/cyclic form	–	–
GYHLMSFPQAAPHGVVFLHVTYVPSQERNFTTAPAICHEGKAYFPREG [SEQ ID NO:1247]	–	recognition by sera derived from individuals which have been and/or are still infected by SARS-CoV	–
KLQDVVNQNAQALNT [SEQ ID NO:957]	recognized in looped/cyclic form	–	–
LGKLQDVVNQNAQAL [SEQ ID NO:955]	recognized in looped/cyclic form	–	–
QPELDSFKEELDKYF [SEQ ID NO:1140]	recognized in looped/cyclic form	–	–
RGVYYPDEIFRSDTL [SEQ ID NO:77]	recognized in looped/cyclic form	–	–
RLDKVEAEVQIDRLI [SEQ ID NO:993]	recognized in looped/cyclic form	–	–
RLNEVAKNLNESLID [SEQ ID NO:1181]	recognized in looped/cyclic form	–	–
SGSDLDRCTTFDDVQ [SEQ ID NO:51]	recognized in looped/cyclic form	–	–
SGTATAGWTFGAGAA [SEQ ID NO:889]	–	–	recognized in linear form
SLTTTSTALGKLQDV [SEQ ID NO:947]	recognized in looped/cyclic form	–	–
SMRGVYYPDEIFRSD [SEQ ID NO:75]	recognized in looped/cyclic form	–	–
SNVPFSPDGKPCTPP [SEQ ID NO:484]	–	–	recognized in linear form
SPDGKPCTPPALNCY [SEQ ID NO:489]	–	–	recognized in linear form
SPDVDLGDISGINAS [SEQ ID NO:1157]	recognized in looped/cyclic form	–	–
SRLDKVEAEVQIDRL [SEQ ID NO:992]	recognized in looped/cyclic form	–	–
SSMRGVYYPDEIFRS [SEQ ID NO:74]	recognized in looped/cyclic form	–	–
SVDCNMYICGDSTEC [SEQ ID NO:745]	–	–	recognized in linear form
TAGWTFGAGAALQIP [SEQ ID NO:893]	–	–	recognized in linear form
TATAGWTFGAGAALQ [SEQ ID NO:891]	–	–	recognized in linear form
TEVMPVSMAKTSVDC [SEQ ID NO:734]	recognized in looped/cyclic form	–	–
TLTSGSDLDRCTTFD [SEQ ID NO:48]	recognized in looped/cyclic form	–	–
TPPALNCYWPLNDYG [SEQ ID NO:496]	recognized in looped/cyclic form	–	–

Sequence	recognition by sera of SARS-CoV infected individuals, looped/cyclic form	recognition by sera of SARS-CoV infected individuals (domains homologous with OC43 spike)	recognition by sera of SARS-CoV infected individuals, linear form
TQHTSSMRGVYYPDE [SEQ ID NO:70]	recognized in looped/cyclic form	–	–
TSGSDLDRCTTFDDV [SEQ ID NO:50]	recognized in looped/cyclic form	–	–
TSPDVDLGDISGINA [SEQ ID NO:1156]	recognized in looped/cyclic form	–	–
TSSMRGVYYPDEIFR [SEQ ID NO:73]	recognized in looped/cyclic form	–	–
TSVDCNMYICGDSTE [SEQ ID NO:744]	–	–	recognized in linear form
TTEVMPVSMAKTSVD [SEQ ID NO:733]	recognized in looped/cyclic form	–	–
TTSTALGKLQDVVNQ [SEQ ID NO:950]	recognized in looped/cyclic form	–	–
TTTSTALGKLQDVVN [SEQ ID NO:949]	recognized in looped/cyclic form	–	–
TVYDPLQPELDSFKE [SEQ ID NO:1134]	recognized in looped/cyclic form	–	–
VAKNLNESLIDLQEL [SEQ ID NO:1185]	recognized in looped/cyclic form	–	–
VDCNMYICGDSTECA [SEQ ID NO:746]	–	–	recognized in linear form
VNQNAQALNTLVKQL [SEQ ID NO:962]	recognized in looped/cyclic form	–	–
VPFSPDGKPCTPPAL [SEQ ID NO:486]	–	–	recognized in linear form
VSGTATAGWTFGAGA [SEQ ID NO:888]	–	–	recognized in linear form
VVNQNAQALNTLVKQ [SEQ ID NO:961]	recognized in looped/cyclic form	–	–
VWLGFIAGLIAIVMV [SEQ ID NO:1212]	recognized in looped/cyclic form	–	–
VYDPLQPELDSFKEE [SEQ ID NO:1135]	recognized in looped/cyclic form	–	–
VYYPDEIFRSDTLYL [SEQ ID NO:79]	recognized in looped/cyclic form	–	–
WLGFIAGLIAIVMVT [SEQ ID NO:1213]	recognized in looped/cyclic form	–	–
WYVWLGFIAGLIAIV [SEQ ID NO:1210]	recognized in looped/cyclic form	–	–
YDPLQPELDSFKEEL [SEQ ID NO:1136]	recognized in looped/cyclic form	–	–
YFKNHTSPDVDLGDI [SEQ ID NO:1151]	recognized in looped/cyclic form	–	–
YICGDSTECANLLLQ [SEQ ID NO:751]	–	–	recognized in linear form
YVWLGFIAGLIAIVM [SEQ ID NO:1211]	recognized in looped/cyclic form	–	–

tested on: antibodies in rabbit serum obtained by immunizing a rabbit with the SARS-CoV strain Frankfurt 1; assay type: binding

Sequence	recognition by rabbit serum
ALGKLQDVVNQNAQA [SEQ ID NO:954]	recognized by the rabbit serum
CDNPFFAVSKPMGTQ [SEQ ID NO:172]	recognized by the rabbit serum
CTTFDDVQAPNYTQH [SEQ ID NO:58]	recognized by the rabbit serum
DDVQAPNYTQHTSSM [SEQ ID NO:62]	recognized by the rabbit serum
DFTDSVRDPKTSEIL [SEQ ID NO:585]	recognized by the rabbit serum
DNPFFAVSKPMGTQT [SEQ ID NO:173]	recognized by the rabbit serum
DRCTTFDDVQAPNYT [SEQ ID NO:56]	recognized by the rabbit serum
DSVRDPKTSEILDIS [SEQ ID NO:588]	recognized by the rabbit serum
DVQAPNYTQHTSSMR [SEQ ID NO:63]	recognized by the rabbit serum
FDDVQAPNYTQHTSS [SEQ ID NO:61]	recognized by the rabbit serum
FMLKYDENGTITDAV [SEQ ID NO:290]	recognized by the rabbit serum
FTDSVRDPKTSEILD [SEQ ID NO:586]	recognized by the rabbit serum
GIGYQPYRVVVLSFE [SEQ ID NO:516]	recognized by the rabbit serum
GKLQDVVNQNAQALN [SEQ ID NO:956]	recognized by the rabbit serum
GYQPYRVVVLSFELL [SEQ ID NO:518]	recognized by the rabbit serum
IGYQPYRVVVLSFEL [SEQ ID NO:517]	recognized by the rabbit serum
KLQDVVNQNAQALNT [SEQ ID NO:957]	recognized by the rabbit serum
KYDENGTITDAVDCS [SEQ ID NO:293]	recognized by the rabbit serum
LDRCTTFDDVQAPNY [SEQ ID NO:55]	recognized by the rabbit serum

Sequence	recognition by rabbit serum
LGKLQDVVNQNAQAL [SEQ ID NO:955]	recognized by the rabbit serum
LKYDENGTITDAVDC [SEQ ID NO:292]	recognized by the rabbit serum
MLKYDENGTITDAVD [SEQ ID NO:291]	recognized by the rabbit serum
NPFFAVSKPMGTQTH [SEQ ID NO:174]	recognized by the rabbit serum
PTTFMLKYDENGTIT [SEQ ID NO:287]	recognized by the rabbit serum
QAPNYTQHTSSMRGV [SEQ ID NO:65]	recognized by the rabbit serum
RCTTFDDVQAPNYTQ [SEQ ID NO:57]	recognized by the rabbit serum
SDFTDSVRDPKTSEI [SEQ ID NO:584]	recognized by the rabbit serum
STALGKLQDVVNQNA [SEQ ID NO:952]	recognized by the rabbit serum
TALGKLQDVVNQNAQ [SEQ ID NO:953]	recognized by the rabbit serum
TDSVRDPKTSEILDI [SEQ ID NO:587]	recognized by the rabbit serum
TFDDVQAPNYTQHTS [SEQ ID NO:60]	recognized by the rabbit serum
TFMLKYDENGTITDA [SEQ ID NO:289]	recognized by the rabbit serum
TSTALGKLQDVVNQN [SEQ ID NO:951]	recognized by the rabbit serum
TTFDDVQAPNYTQHT [SEQ ID NO:59]	recognized by the rabbit serum
TTFMLKYDENGTITD [SEQ ID NO:288]	recognized by the rabbit serum
TTSTALGKLQDVVNQ [SEQ ID NO:950]	recognized by the rabbit serum
VQAPNYTQHTSSMRG [SEQ ID NO:64]	recognized by the rabbit serum
